Results reported in patent US8993721B2, “Peptides for targeting apoptotic cells and uses thereof” (Kyungpook National University Industry-Academic Cooperation …, priority 2008, dated 2015).
“Also recorded” adds a separate entry of the source.

Assays:
[1] = tested on: apoptotic cells in A549 tumor tissue xenotransplanted under the skin of nude mouse; assay: Histological analysis of tumor targeting (Example 2); format: in vivo; settings: fluorescein-labeled peptide, tail vein, 50 μM final, 2 hours circulation; cryosections
Protocol: All animal experiments were performed in accordance with the guideline of the Institutional Animal Care and Use Committee. For tumor xenotransplantation, human lung cancer cells (A549, 1×10^7 cells) suspended in RMPI-1640 medium was subcutaneously injected at the right upper or lower limb of a 6-week-old male BALB/c nude mouse (Hyochang Science). Then, 3 weeks were given for the tumor to grow to a size of 0.5 to 1 cm. The A549 cell line used in the experiment was cultured in RMPI-1640 medium containing 10% fetal bovine serum (FBS) in which antibiotics (penicillin and streptomycin) were included. Subculturing was performed every 3 or 4 days.
The peptides used in the present invention were fluorescein-attached form at the N-terminal. They were synthesized according to the standard Fmoc technique and then isolated through HPLC. The peptide synthesis was performed by an expertise company (Peptron).
The peptide of the present invention (ApoPep-1) or a control peptide (amino acid sequence: NSSSVDK), labeled with fluorescein, was injected into the tail vein of a mouse under isoflurane anesthesia, to a final concentration of 50 μM, and 2 hours was given for circulation.
For histological analysis, the mouse was anesthetized and the abdomen was cut open. After sequentially perfusing phosphate-buffered saline (PBS) and 4% paraformaldehyde through the heart, tumor tissues and organs were removed. Each tissue was cryosected and the peptide of the present invention was observed under a fluorescence microscope (Zeiss). Apoptosis in the tumor tissue was confirmed by TUNEL ([…] terminal deoxynucleotidyl transferase-mediated dUTP nick-end labeling) assay according to the instructions of the manufacturer (Chemicon). Fibrinogen staining was performed by immunohistochemistry using anti-fibrinogen antibody (Abcam) and secondary antibody labeled with Alexa 568, a red fluorescent reagent.

[2] = tested on: A549 tumor xenotransplanted in nude mice; assay: In vivo fluorescence imaging of targeting of apoptotic cells in tumor (Example 10); set-up: species or system mouse
Protocol: Nude mice in which tumor was xenotransplanted using A549 cells were prepared as in Example <8-1>. The mice were grouped into a doxorubicin (Sigma) treated group (Dox+) and untreated group (Dox−). The treated group was treated with doxorubicin (5 mg/kg) one time, 12 hours prior to injection of the peptide. At the tail vein of each mouse, the polypeptide of the present invention or a control peptide, labeled with fluorescein or Cy7.5 near-infrared fluorescent dye, was injected at a final concentration of 50 μM, under isoflurane anesthesia. Following the injection, in vivo fluorescence images were obtained 0.5 hours and every hour, from 1 hour to 4 hours, after the injection, using an Optix exPlore instrument (ART). The images were standardized using the software provided with the instrument.

[3] = tested on: etoposide-treated apoptotic A549 cells; assay: FACS analysis of binding to apoptotic cells (Example 3-3); format: cell-based, human
Protocol: As another way of confirming the binding of the peptide of the present invention to apoptotic cells, apoptotic cells were treated with the peptide of the present invention, labeled with fluorescein, and the binding was confirmed through FACS analysis. […] The apoptotic cells or normal cells were reacted with ApoPep-1 (5 μM), ApoPep-2 (10 μM) or a control peptide at the same concentrations, labeled with fluorescein, at 4° C. for 1 hour. Further, the cells were reacted with fluorescein-labeled annexin V at room temperature for 15 minutes. After staining the cells with propodium iodide (PI) simultaneously, followed by washing with PBS, FACS analysis was performed using a FACS instrument (Becton Dickinson).

[4] = tested on: brain of stroke rat (middle cerebral artery occlusion/reperfusion); assay: Molecular imaging of stroke (Example 6); format: in vivo; settings: Cy7.5-labeled peptide 50 μM i.v.; one and three hours
Protocol: A stroke model was established by occluding the left middle cerebral artery of a rat for 2 hours, followed by reperfusion. Two hours after the reperfusion, the peptide having an amino sequence represented by SEQ ID NO: 1 (ApoPep-1) and a control peptide, labeled with Cy7.5 NIR fluorescence, was intravenously injected at a final concentration of 50 μM to the stroke rat and a normal rat through the tail vein, under isoflurane anesthesia. One and three hours after the intravenous injection, NIR images of the head portion were obtained. Further, NIR fluorescence images of the brains of the rats of the 3 hour group were obtained.

[5] = tested on: etoposide-treated apoptotic A549 cells; assay: FACS analysis of binding to apoptotic cells (Example 9-3); format: cell-based, human
Protocol: As another way of confirming the binding of the polypeptide of the present invention (ApoPep-2) to apoptotic cells, apoptotic cells were treated with the peptide, labeled with fluorescein, and the binding was confirmed through FACS analysis. First, apoptosis was induced by treating A549 cells with 50 μM etoposide for 20 hours. The apoptotic cells or normal cells were reacted with ApoPep-2 (10 μM) or a control peptide at the same concentration, labeled with fluorescein, at 4° C. or 37° C. for 1 hour. Further, the cells were reacted with fluorescein-labeled annexin V at room temperature for 15 minutes. After washing cells with PBS, FACS analysis was performed using a FACS instrument (Becton Dickinson).

[6] = tested on: A549 tumor xenotransplanted in nude mice; assay: In vivo fluorescence imaging of targeting of apoptotic cells in tumor (Example 4-1); set-up: species or system mouse; settings: +Dox (10 mg/kg, 3 times); fluorescein-labeled peptide 50 μM
Protocol: Nude mice in which tumor was xenotransplanted using A549 cells were prepared as in Example <2-1>. The mice were grouped into a doxorubicin (Sigma) treated group (+Dox) and untreated group (−Dox). The treated group was treated with doxorubicin (10 mg/kg) 3 times, with an interval of 48 hours, a week prior to injection of the peptide. At the tail vein of each mouse, the peptide of the present invention or a control peptide, labeled with fluorescein, was injected at a final concentration of 50 μM, under isoflurane anesthesia. Following the injection, in vivo fluorescence images were obtained every hour, from 1 hour to 6 hours after the injection, using an Optix exPlore instrument (GE Healthcare). The images were standardized using the software provided with the instrument.
Further, when the tumor grew considerably (1 cm or larger in diameter), the peptide of the present invention was injected at the same concentration as above, without doxorubicin treatment, and in vivo fluorescence images were obtained at every given time using an IVIS fluorescence imaging system (Chemipro).

[7] = tested on: etoposide-treated apoptotic A549 cells; assay: Microscopic observation of binding of the peptide to apoptotic cells, A549 (Example 9-1); format: cell-based, human; settings: Alexa594-annexin V
Protocol: (§1) Cells were cultured in chamber slide (Nunc) and treated with 50 μM etoposide (Sigma) for 16 hours (A549 cells) or 50 ng/ml trail (R&D Systems) for 16 hours (MDA-MB231 cells) to induce apoptosis. The cells were cultured in RMPI-1640 medium (A549 cells) or DMEM-High (MDA-MB231 cells) containing antibiotics (penicillin and streptomycin) and 10% FBS. All the cells were sub-cultured every 3 or 4 days. The apoptosis-induced apoptotic cells were washed with PBS and blocked with 1% BSA at 37° C. for 30 minutes. Then, the cells were reacted with 10 μM of the peptide labeled with fluorescein, at 4° C. for 1 hour. After washing, the cells were reacted with an annexin V reaction buffer containing Alexa594-labeled annexin V (Invitrogen) at room temperature for 15 minutes. The cells were washed with PBS and then fixed with 4% paraformaldehyde for 5 minutes. After treatment with a mounting solution containing the DAPI nuclear stain, images of the cells were obtained under a fluorescence microscope.

[8] = tested on: trail-treated apoptotic MDA-MB231 cells; assay: Microscopic observation of binding of the peptide to apoptotic cells, MDA-MB231 (Example 9-1); format: cell-based; settings: Alexa594-annexin V
Protocol: as §1

[9] = tested on: etoposide-treated apoptotic cells (A549, H460, HeLa, L132, RAW); assay: Microscopic observation of binding of the peptide to apoptotic cells (Example 3-1); format: cell-based; settings: 10 μM fluorescein-labeled peptide 4° C. 1 hour
Protocol: Cells were cultured in chamber slide (Nalgene Nunc) and treated with 50 μM etoposide (Sigma) for a given period of time (A549 and HeLa cells: for 15 hours, H460 cells: 24 hours, L132 cells: 3 hours, RAW cells: 6 hours) to induce apoptosis. The cells were cultured in RMPI-1640 medium (A549 and H460 cells) or DMEM (HeLa, L132 and RAW cells) containing antibiotics (penicillin and streptomycin) and 10% FBS. All the cells were subcultured every 3 or 4 days. The apoptosis-induced apoptotic cells were washed with PBS and blocked with 1% BSA at 37° C. for 30 minutes. Then, the cells were reacted with 10 μM of the peptide labeled with fluorescein, at 4° C. for 1 hour. After washing, the cells were reacted with an annexin V reaction buffer containing Alexa594-labeled annexin V (Molecular Probes), at room temperature for 15 minutes. The cells were washed with PBS and then fixed with 4% paraformaldehyde for 5 minutes. Thereafter, after counterstaining using the nuclear stain 4′,6-diamidino-2-phenylindole (DAPI), followed by treatment with a mounting solution (Molecular Probes), images of the cells were obtained under a fluorescence microscope (Zeiss).

[10] = tested on: apoptotic A549 cells; assay: Competitive inhibition of binding to apoptotic cells by annexin V treatment (Example 9-2); format: cell-based, human; settings: pre-treatment at 0, 500 and 1000 μM; high concentration
Protocol: (§2) In order to further investigate the binding properties of the polypeptide of the present invention (ApoPep-2) to apoptotic cells, competitive inhibition by annexin V was measured. To this end, first, apoptotic A549 cells were pre-treated with annexin V, not labeled with fluorescence, at concentrations of 0, 500 and 1000 μM. Then, after reacting the cells with fluorescence-labeled annexin V under the same condition as described in Example <9-1>, the binding of the cells was observed under a fluorescence microscope.
(§3) Further, apoptotic A549 cells were pre-treated with annexin V, not labeled with fluorescence, at a concentration of 1000 μM. Then, after reacting the cells with fluorescence-labeled peptide under the same condition as described in Example <9-1>, the binding of the cells was observed under a fluorescence microscope.

[11] = tested on: apoptotic A549 cells; assay: Competitive inhibition of binding to apoptotic cells by annexin V treatment (Example 3-2); format: cell-based, human; settings: pre-treatment at 0, 200 and 1000 μM; high concentration
Protocol: as §2, with “peptide” for “polypeptide”, “(ApoPep-1)” for “(ApoPep-2)”, “200” for “500”, “[…].” for “1000 μM.”, “<3-1>,” for “<9-1>,”
as §3, with “<3-1>,” for “<9-1>,”

[12] = tested on: H460 tumor xenotransplanted in nude mice; assay: Radionuclide (micro PET) imaging of targeting of apoptotic cells in tumor (Example 4-2); format: in vivo, mouse; settings: 1 hour after injection
Protocol: Nude mice in which tumor was xenotransplanted using H460 cells were prepared as in Example <2-1>. The mice were grouped into a doxorubicin (Sigma) treated group and untreated group. The treated group was treated with doxorubicin (10 mg/kg) 3 times, with an interval of 48 hours, a week prior to injection of the peptide. The peptide of the present invention (ApoPep-1), labeled with the radioactive isotope ^124I, was injected through the tail vein of each mouse under isoflurane anesthesia (treated group: 91 μCi; untreated group: 93 μCi). Further, ^18F-labeled FDG, which is frequently used for PET, was injected to the doxorubicin treated group and untreated group, at 300 μCi and 304 μCi, respectively. Radionuclide images were obtained using a micro PET instrument (Concorde MicroSystems) 5 hours after the injection of [^124I]ApoPep-1 and 1 hour after the injection of [^18F]FDG.

[13] = etoposide 15 hours, fluorescein-annexin V room temperature 15 minutes, PI

## NSSSVDK [control peptide, reference compound]
[1]
  peptide fluorescence observed in the tumor tissue: hardly observed
[2]; 4 hours after peptide injection, all the groups, renal clearance
  ex vivo fluorescence signal from the kidney: strong
[2]; Dox+, Cy7.5-labeled peptide 50 μM
  fluorescence signal from the tumor, doxorubicin treated group: targeting was not observed; also recorded: weakly detected
[3]; etoposide-treated A549 cells, 4° C. 1 hour
  binding to apoptotic cells (FACS): almost nonexistent
[4]
  NIR fluorescence at the head portion of the stroke rat: almost nonexistent
[5]; etoposide-treated A549, 10 μM, 4° C. or 37° C.
  binding to apoptotic cells (FACS): almost nonexistent or minimal
[6]
  fluorescence signal from the tumor, doxorubicin treated group: weakly detected or almost nonexistent

## annexin V: 36 kDa protein that binds to phosphatidylserine; used to detect apoptotic cells [reference compound]
[7]; 10 μM peptide 4° C. 1 hour
  labeling of A549 cells not treated with etoposide: no labeling was observed
[7]; 50 μM etoposide 16 hours, 10 μM fluorescein-labeled peptide 4° C. 1 hour
  labeling of etoposide-treated apoptotic A549 cells: labeling was observed
[8]; 50 ng/ml trail 16 hours, 10 μM fluorescein-labeled peptide 4° C. 1 hour
  labeling of trail-treated apoptotic MDA-MB231 cells: labeling was observed
[8]; 10 μM peptide 4° C. 1 hour
  labeling of MDA-MB231 cells not treated with trail: no labeling was observed
[9]; Alexa594-annexin V
  labeling of normal cells not treated with etoposide: no labeling was observed
[9]; 50 μM etoposide, Alexa594-annexin V room temperature 15 minutes
  labeling of etoposide-treated apoptotic cells (fluorescence microscopy): labeling was observed
[10]
  fluorescence of labeled annexin V after pre-treatment with unlabeled annexin V: decreased significantly
[3]; [13]
  percentage of the cells stained by both annexin V and PI (fraction Q2, later stage of apoptosis): 9.4%
  percentage of the cells stained only by annexin V (fraction Q4, early stage of apoptosis): 64.3%
[5]; etoposide 20 hours, fluorescein-annexin V room temperature 15 minutes
  percentage of the cells stained by annexin V: 61%
[11]
  fluorescence of labeled annexin V after pre-treatment with unlabeled annexin V: decreased significantly

## fluorodeoxyglucose [[^18F]FDG]
[12]
  PET signal at the tumor site, doxorubicin treated group compared with untreated group: weaker signal
